Data taken from patent US11400059B2, “Treatment of pain and/or pain related symptoms associated with dysmenorrhea” (ALYRA BIOTECH PTY LTD, priority 2017, dated 2022).

What was measured:
Human NOD2 = molecular target: T1, Human NOD2 (Homo sapiens, UniProt Q9HC29); experiment: Human NLR antagonist screening, NF-κB SEAP reporter in HEK293 cells; format: cell-based; conditions: antagonist mode, Ami 1 μM, +L18-MDP 50 ng/mL, No Sample 18, Control− 1
T1 construct: expressed in transfected cells; host or cells: HEK293
T1 sequence (Q9HC29 whole entry): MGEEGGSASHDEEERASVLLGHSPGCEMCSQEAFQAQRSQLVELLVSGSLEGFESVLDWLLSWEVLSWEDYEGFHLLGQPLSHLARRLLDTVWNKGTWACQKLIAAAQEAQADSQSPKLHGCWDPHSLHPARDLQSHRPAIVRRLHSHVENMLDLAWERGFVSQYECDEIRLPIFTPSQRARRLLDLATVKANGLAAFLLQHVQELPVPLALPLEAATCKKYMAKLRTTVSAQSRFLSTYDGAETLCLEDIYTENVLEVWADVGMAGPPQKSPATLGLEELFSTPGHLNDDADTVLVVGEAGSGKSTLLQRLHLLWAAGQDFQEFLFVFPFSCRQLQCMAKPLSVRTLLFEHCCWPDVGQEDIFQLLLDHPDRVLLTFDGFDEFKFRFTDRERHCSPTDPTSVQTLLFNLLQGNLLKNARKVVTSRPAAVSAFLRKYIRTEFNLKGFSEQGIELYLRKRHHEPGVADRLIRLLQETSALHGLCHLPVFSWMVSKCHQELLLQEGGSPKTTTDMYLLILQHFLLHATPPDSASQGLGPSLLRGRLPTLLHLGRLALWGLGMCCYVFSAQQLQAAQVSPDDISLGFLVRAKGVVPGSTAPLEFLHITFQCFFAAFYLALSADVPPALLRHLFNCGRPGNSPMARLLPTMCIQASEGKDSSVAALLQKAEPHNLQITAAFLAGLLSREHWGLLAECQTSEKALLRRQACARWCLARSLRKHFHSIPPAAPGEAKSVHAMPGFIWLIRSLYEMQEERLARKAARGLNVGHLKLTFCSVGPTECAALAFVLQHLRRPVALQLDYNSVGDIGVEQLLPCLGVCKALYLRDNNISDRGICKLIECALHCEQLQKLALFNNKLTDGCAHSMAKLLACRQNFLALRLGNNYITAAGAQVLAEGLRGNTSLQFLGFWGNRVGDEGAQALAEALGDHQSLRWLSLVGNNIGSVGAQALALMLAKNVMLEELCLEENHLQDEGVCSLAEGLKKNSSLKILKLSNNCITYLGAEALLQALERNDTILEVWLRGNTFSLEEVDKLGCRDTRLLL
Protocol: (§1) Toll-Like Receptor (TLR), NOD-Like Receptor (NLR) and C-Type Lectin Receptor (CLR) stimulation were tested by assessing NF-κB activation in HEK293 cells expressing a given TLR, NLR or CLR. The activity of the test articles was tested at one concentration and compared to control ligands. These steps were performed in triplicate. hNOD2: L18-MDP at 100 ng/mL Antagonist: 50 ng/mL. In a 96-well plate (200 μL total volume) containing the appropriate cells (50,000-75,000 cells/well), 20 μL of the test article or the positive control ligand was added to the wells. For the antagonist assay, the test article was incubated with the cells, at 37° C. with 5% CO2, for 30 minutes prior to the addition of the positive control ligand to the wells. The media added to the wells was designed for the detection of NF-κB induced SEAP expression. After a 16-24 hr incubation the optical density (OD) was read at 650 nm on a Molecular Devices SpectraMax 340PC absorbance detector. Fold induction (ratio of average induced value to average non-induced value) was determined for each TLR, NOD1, NOD2, Dectin-1a, Dectin-1b.

[1] = test system: spinal astrocytes (GFAP) in the dorsal horn of the spinal cord; experiment: Spinal astrocyte activation (GFAP immunofluorescence) after intrauterine LPS; format: in vivo, mouse (Balb/C); conditions: intrauterine, mixed with LPS 100 μg/kg on first day of estrus and alone the subsequent day, 3 estrous cycles; amitriptyline 28 μg/kg, TAK-242 36 μg/kg; vs LPS
Protocol: Group 1 included twelve mice with 20 μl endotoxin-free saline introduced to the uterus on the first day of estrus and the subsequent day over 3 consecutive estrous cycles. Group 2 included twelve mice with LPS (100 μg/kg) instilled in the uterus on the first day of estrus and saline injected on the subsequent day over 3 consecutive estrous cycles. Group 3 included twelve mice with LPS (100 μg/kg) mixed with amitriptyline (20 μl of a 100 μM solution, equivalent to 28 μg/kg) instilled in the uterus on the first day of estrus, and amitriptyline alone instilled on the subsequent day over 3 consecutive estrous cycles. Group 4 included 14 mice with LPS (100 μg/kg) mixed with TAK-242 (20 μl of a 100 μM solution, equivalent to 36 μg/kg) instilled on the first day of estrus and TAK-242 alone instilled on the subsequent day over 3 consecutive estrous cycles.
The investigation involved the instillation of 20 ul of an endotoxin-free 0.9% saline solution into the uterus of all animals on the first day of estrus and the subsequent day during 3 consecutive estrous cycles. Additional agents added to the saline were included according to the groups outlined below. Where LPS is administered, this was done on only 1 day per estrous cycle.
Where amitriptyline or TAK-242 was administered, this is on both the first day of estrus and the subsequent day.
(§2) The spinal cord was assessed using immunohistochemistry techniques across levels T10, T11, T12, T13, L1, L2, L3, L4, L5, L6, S1 and S2 for Groups 1 and 2, where T represents the thoracic segment of the spinal cord, L represents the lumbar segment of the spinal cord and S represents the sacral segment of the spinal cord.
as §2, with “levels” for “levels T10, T11,”, “L6, S” for “L6, S1”, “Groups 3” for “Groups 1”, “and 4,” for “and 2,”, “cord. […]” for “cord.”

[2] = taken orally; cited from earlier work
Human Dectin-1b = molecular target: T2, Human Dectin-1b (Homo sapiens, UniProt Q9BXN2); experiment: Human CLR antagonist screening, NF-κB SEAP reporter in HEK293 cells; format: cell-based; conditions: antagonist mode, Ami 1 μM
T2 construct: expressed in transfected cells; host or cells: HEK293
T2 sequence (Q9BXN2 1-201 isoform Q9BXN2-2): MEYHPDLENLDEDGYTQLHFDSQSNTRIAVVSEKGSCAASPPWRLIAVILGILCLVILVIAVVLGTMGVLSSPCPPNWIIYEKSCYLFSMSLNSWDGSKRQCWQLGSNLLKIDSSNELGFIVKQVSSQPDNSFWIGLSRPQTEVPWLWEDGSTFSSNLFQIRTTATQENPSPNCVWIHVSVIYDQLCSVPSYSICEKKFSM
Protocol: as §1, with “hDectin-1a and hDectin-1b: WGP Soluble (0-glucan from S. cerevisiae) at 10 ng/mL Antagonist: 5 ng/mL. Curdlan” for “hNOD2: L18-MDP”, “μg/mL.” for “ng/mL”, “100 μg/mL. Zymosan Depleted (hot alkali treated S. cerevisiae) at 5 μg/mL Antagonist: 3 μg/mL.” for “50 ng/mL.”

SMILES: CN(C)CCC=C1c2ccccc2CCc2ccccc21 [Amitriptyline]
- Fold Induction (Human NOD2): slight inhibitory effect
- Fold Induction (Human NOD2; listed as Ami): 17
- astrocytic reactivity (GFAP staining), impact of intrauterine LPS at multiple levels of the spinal cord [1]: reduced astrocytic reactivity to below basal levels
- side effects [2]: drowsiness, dry mouth, blurred vision, pupil dilation, constipation, weight and urinary retention
- Fold Induction (Human Dectin-1b; +Curdlan 100 μg/mL, No Sample 4, Control− 1): 4
- Fold Induction (Human Dectin-1b; +WGP Soluble 5 ng/mL, No Sample 1, Control− 1): 1
- Fold Induction (Human Dectin-1b; +Zymosan Depleted 3 μg/mL, No Sample 7, Control− 1): slight inhibitory effect
- Fold Induction (Human Dectin-1b; +Zymosan Depleted 3 μg/mL, No Sample 7, Control− 1, listed as Ami): 6
